From patent US20260224554A1, “OBEFAZIMOD FOR TREATMENT OF ULCERATIVE COLITIS” (ABIVAX, priority 2023, published 2026) come the findings set out here.

This data set has as its system subjects with Moderate to Severe Active Ulcerative Colitis. The data set is described as follows: Follow-up Phase II open-label long-term study of ABX464 25 mg QD (ABX464-108), interim analysis. Type of data set: in vivo, human. The procedure: • The primary objective of the study is to evaluate the long-term safety of ABX464 given at 25 mg once daily in subjects with Moderate to Severe Active Ulcerative Colitis • Number of Adverse Events (AEs) in ABX464 treated subjects
The secondary objectives are: • To evaluate the long-term effect of ABX464 on clinical remission; • Percentage of subjects reaching clinical remission at yearly visits. • To evaluate the long-term effect of ABX464 on endoscopic remission; • Percentage of subjects reaching endoscopic remission at yearly visits. • To evaluate the long-term effect of ABX464 on clinical response; • Percentage of subjects reaching clinical response at yearly visits. • To evaluate the long-term effect of ABX464 on endoscopic improvement; • Percentage of subjects reaching endoscopic improvement at yearly visits. • To evaluate the long-term effect of ABX464 on inflammatory markers (C-reactive protein (CRP), calprotectin); • The change from Baseline in CRP and fecal calprotectin levels. • To evaluate the safety profile of ABX464; • Number and rate of all AEs and causally-related AEs, all Serious Adverse Events (SAEs) and causally-related SAEs, all AEs of Special Interest (AESIs) and causally-related AESIs, classified by severity; • Incidence of AEs leading to investigational medicinal product discontinuation; • The number of clinically-significant laboratory abnormalities. • To evaluate the effect of ABX464 on miR-124 expression in total blood at every timepoint defined in the schedule of assessment. • Change relative to baseline in miRNA-124 expression in total blood at every defined timepoint.
For the purpose of the study, the following definitions will be applied: • Clinical remission based on the Mayo Scoring system, is defined as stool frequency subscore=0 or 1 and rectal bleeding subscore=0 and endoscopy subscore=0 or 1 (modified to exclude friability). • Clinical Response is defined as a reduction from baseline in modified Mayo Score of at least 2 points and greater than or equal to 30 percent from baseline with an accompanying decrease in rectal bleeding sub-score of greater than or equal to 1 point or absolute rectal bleeding sub-score of less than or equal to 1 point. • Endoscopic remission defined as a Mayo endoscopic sub score of 0. • Endoscopic improvement is defined as a Mayo endoscopic sub score of ≤1 (excluding friability).
This study is an open-label study aiming at evaluating the long-term safety and the efficacy profile of ABX464 given once a day (QD) at 25 mg in subjects who have been previously enrolled in the ABX464-102 or ABX464-104 studies (OLE and maintenance studies) and who are willing to continue their treatment.
All subjects will receive ABX464 given at 25 mg QD.
Subjects will be treated with ABX464 for a maximum period of 54 months. Subjects will be followed up quarterly. After the treatment period, subjects will be followed for 4 additional weeks for safety purposes.
A subject will be eligible to participate in this study if ALL the following criteria are met: • 1. Subjects who previously completed the ABX464-102 or ABX464-104 clinical studies; • 2. Subjects should be in endoscopic improvement with a rectal bleeding sub-score=0 point at the end of treatment period in the previous study (ABX464-102 or ABX464-104). Endoscopic improvement is defined as: a Mayo endoscopic sub score of ≤1; • 3. Subjects able and willing to comply with study visits and procedures; • 4. […]

Take `FC(F)(F)Oc1ccc(Nc2ccc3cccc(Cl)c3n2)cc1` [Obefazimod, 8-chloro-N-[4-(trifluoromethoxy)phenyl]quinolin-2-amine]: the “Durability of efficacy (MMS evaluation)” value (25 mg QD in patients who achieved endoscopic improvement after 2-4 years of exposure to 50 mg) is on record as “continues to have durable efficacy”. Further, the “Proportion of patients with Fecal Calprotectin <250 microgm/gm” value (63 patients who completed 48-week treatment with 25 mg QD) is recorded as 93%. Also, where the note is “63 patients who completed 48-week treatment with 25 mg QD, after 2-4 years of 50 mg in ABX464-102/-104”, the “Disease control Rate (Stable+improved MMS)” value was determined as 84.1%. Moreover, the New safety signals entry (UC patients treated for up to 5 years) is “no new safety signals”. Also, the “Patients withdrawn due to AE” value (of 74 patients analyzed, 48-week treatment with 25 mg QD) is listed as 2 patients.
